Laboratory results published in paper PMC6199279, “Design of Peptoid-peptide Macrocycles to Inhibit the β-catenin TCF Interaction in Prostate Cancer” (Nature Communications, 2018).
Numbered stars: 1 amine (or outer) side, 2 acyl side, 3 side chain; on linkers, the order of the positions; unused ones are H or OH. Square brackets hold non-standard residues; d marks the D form. Peptide text beside a SMILES is read from it. N(2-(2-PhOPh)Et)Gly = O=C(O)CNCCc1ccccc1Oc1ccccc1; Gly(N-3,5-(OMe)2-Ph) = COc1cc(NCC(=O)O)cc(OC)c1; X1 = COc1ccc([C@H](C)N(CC(=O)[*:2])[*:1])cc1; N((CH2)3OiPr)Gly = CC(C)OCCCNCC(=O)O

Legend:
[1] = tested on: LNCaP-abl and LNCaP-95 cells; assay: RT-qPCR of Wnt and AR target genes; assay type: cell-based; conditions: 10 µM, 24 h
Method: (§1) To test the effect of 13 in a model of prostate cancer, we used the LNCaP-abl and LNCaP-95 cell lines. These cell lines were derived from androgen-sensitive LNCaP cells, and passaged in androgen-deprived media to mimic the development of castration resistance in patient tumors[54],[55]. We first isolated mRNA from LNCaP-abl and LNCaP-95 cells treated with vehicle, 10 µM 13 and linear 13 for 24 h to check the expression of endogenous Wnt and AR target genes (Fig. 4a). […] AR-V7 is particularly challenging to target as most AR antagonists target the ligand binding domain. […] To check if the changes in Wnt and AR target gene expression translated into effects on growth, the viability of LNCaP-abl and LNCaP-95 cells was determined after 5 days of treatment (Fig. 4b).
(§2) Data are presented as mean and SD (n = 3) of three independent experiments (a) or representative of three independent experiments (b, c).
LNCaP-abl and LNCaP-95 cells were cultured in indicator free RPMI 1640 media (Life) supplemented with 10% charcoal stripped FBS, 1% pennicillin/streptomycin, and 1% L-Glutamine. HEK-293 Cells were cultured in DMEM media (Life) supplemented with 10%FBS and 1% pennicillin/streptomycin. A549 and U2OS cells were cultured in RPMI 1640 media (Life) and McCoy’s 5 A modified media (Life), respectively, both supplemented with 10%FBS and 1% pennicillin/streptomycin. LNCaP-abl, and LNCaP-95 cell lines were generous gifts from Z. Culig (Innsbruck Medical University, Austria) and J. Isaacs (Johns Hopkins University, Baltimore, MD), respectively. Cell lines were authenticated by STR profiling (Genetica Cell Line Testing; Burlington, NC). A549 and U2OS were purchased from ATCC (product numbers CCL-185 and HTB-96). Cell lines were routinely screened for mycoplasma. Luciferase assays were conducted using stably transfected TOP-flash and 3xARE LNCaP-abl cell lines. For the Wnt pathway, TOP-Flash LNCaP-abl cells were treated with 1 nM siAPC (a 1:1:1 mix of Ambion Silencer Silect siAPC RNA, ID#s s1433, s1434, s1435) for 24 h and seeded into 384-well plates at 5000 cells/well, followed by 24 h of treatment with compound. For the AR-pathway, 3xARE LNCaP-abl cells were seeded into 384-well plates at 5000 cells per well, treated for 48 h with compound, with the addition of R1881 for the final 8 h. Both were measured using the ONE-Glo detection kit (Promega) and data is standardized to CellTiter-Fluor (Promega) viability readings to account for potential variations in well to well cell number. Control Wnt inhibitors were purchased from Sigma with the exception of PRI-724 which was purchased from Selleckchem. Co-immunoprecipitation was carried out using HEK293 cells transfected with either myc-TCF (addgene #32738) or myc-TCF dominant negative (addgene #32739) followed by 48 h of treatment with compound. Cells were lysed using Triton lysis buffer and 1 mg total protein was incubated overnight at 4 C with 40 µl anti-cMyc magnetic beads (Thermo). Total protein concentration in cell lysates were determined using Pierce Rapid Gold BCA Protein Assay Kit (Thermo). The beads were washed 3× with lysis buffer then boiled in 2X sample loading dye.

LNCaP-abl cells = conditions: read-out: IC50 proliferation, LNCaP-abl; 5 days of treatment
Method: as §1, §2
(§3) LNCaP-abl and LNCaP-95 cells were cultured in indicator free RPMI 1640 media (Life) supplemented with 10% charcoal stripped FBS, 1% pennicillin/streptomycin, and 1% L-Glutamine. […] Both were measured using the ONE-Glo detection kit (Promega) and data is standardized to CellTiter-Fluor (Promega) viability readings to account for potential variations in well to well cell number. […] Total protein concentration in cell lysates were determined using Pierce Rapid Gold BCA Protein Assay Kit (Thermo). […]

LNCaP-95 cells = conditions: read-out: IC50 proliferation, LNCaP-95; 5 days of treatment
Method: as §1, §2, §3

β-catenin = biological target: T1, β-catenin (Homo sapiens, UniProt P35222); assay: Dynamic light scattering of β-catenin; assay type: binding; conditions: 10 µM compound vs 1% DMSO vehicle
T1 construct: His6-β-catenin armadillo domain, AA134-668; made in house; host or cells: E. coli BL21 DL3 (NEB)
T1 sequence (P35222 134-668): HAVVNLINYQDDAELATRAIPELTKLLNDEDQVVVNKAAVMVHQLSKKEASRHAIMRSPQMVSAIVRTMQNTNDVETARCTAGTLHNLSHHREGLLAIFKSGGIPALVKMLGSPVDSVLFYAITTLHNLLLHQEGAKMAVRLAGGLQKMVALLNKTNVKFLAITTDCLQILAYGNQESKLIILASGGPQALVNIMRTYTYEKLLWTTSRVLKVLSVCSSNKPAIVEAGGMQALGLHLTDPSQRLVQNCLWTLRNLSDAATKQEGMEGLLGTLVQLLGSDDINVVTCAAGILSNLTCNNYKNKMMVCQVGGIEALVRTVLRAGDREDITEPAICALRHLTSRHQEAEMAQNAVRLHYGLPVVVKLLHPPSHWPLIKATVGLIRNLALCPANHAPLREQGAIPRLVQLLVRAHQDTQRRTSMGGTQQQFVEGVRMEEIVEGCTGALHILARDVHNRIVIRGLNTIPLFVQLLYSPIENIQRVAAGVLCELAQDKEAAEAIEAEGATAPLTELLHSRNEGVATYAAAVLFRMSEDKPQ
Method: (§4) We next characterized the dose response curves for compound 13 in the Wnt and AR luciferase reporters. The linear version of 13 (linear 13: NH2-|N-mpp, N-dmp, N-ipp, N-Smpe, N-Smpe, D-Ala|-OH) was used as a control compound. […] To test direct binding, we pre-formed dynamic light scattering (DLS) with β-catenin in the presence of vehicle, compound 13, and α-cyclodextrin. […] HEK293 cells were transiently transfected with a plasmid expressing full length, myc-tagged TCF4. After 48 h treatment with either vehicle (DMSO) or 10 µM 13, cells were lysed and myc-TCF4 protein was immunoprecipitated.

[2] = biological target: β-catenin:TCF4 interaction (Homo sapiens, UniProt P35222); assay: biochemical
Method: as §4

[3] = tested on: Wnt signaling in zebrafish embryos; conditions: zebrafish, in vivo
Method: To evaluate the efficacy of 13 in vivo, we utilized a Danio rerio (zebrafish) model. […] To test this, BIO was added to zebrafish embryos at 6 hpf with and without 13 as described in Fig. 6a.
The zebrafish phenotypic assay was conducted using wild-type zebrafish embryos seeded into a 96-well round bottom plate at 4 hpf in 50 µl of Fish Water (60 mg/l sea salt, Instant Ocean, Blacksburg, VA, USA) supplemented with 1 mg per L Methylene Blue (Sigma-Aldrich). The embryos were not dechorionated. At 50% epiboly, roughly 5.5 hpf, 50 µl of 30 µM 13 or Linear 13 was added. About 30 min later at shield stage, 50 µl of 6 nM (3×) BIO was added. The embryos were then visualized for the presence of eyes and imaged at 30 hpf. Zebrafish embryos were randomly assigned to non-blinded treatment groups, none were excluded. Sample size was determined with a power calculation to achieve statistical significance (alpha = 0.05, beta = 0.2) if only 60% of the fish had developed eyes.

In the case of `COc1ccc([C@H](C)N2CC(=O)N[C@H](C)C(=O)N(CCc3ccccc3Oc3ccccc3)CC(=O)N(c3cc(OC)cc(OC)c3)CC(=O)N(CCCOC(C)C)CC(=O)N([C@@H](C)c3ccc(OC)cc3)CC2=O)cc1` [Compound 13] (cyclo([dA][N(2-(2-PhOPh)Et)Gly][Gly(N-3,5-(OMe)2-Ph)][N((CH2)3OiPr)Gly][X1][X1])), the “AR mRNA” value [1] is reported as “decreased”, the AR-V7 transcription [1] is reported as “decreased” and the “Cyclin D1 mRNA” value [1] is reported as “decreased”. The E-cadherin transcription [1] was “increased”, the “FKBP5 mRNA” value [1] was “decreased” and the “PSA mRNA” value [1] was “decreased”. For the same compound, the “cMYC mRNA” value [1] was “decreased”, the IC50 (LNCaP-abl cells) was 195 nM and the IC50 (LNCaP-95 cells) was 782 nM. The “Shift in measured hydrodynamic radius of β-catenin (DLS)” value (β-catenin) was “significant shift”, the IC50 [2] was 5440 nM and the “Harm to embryo development” value [3] was “does not otherwise harm embryo development”.
